Laboratory results reported in patent US20160031937A1, “NEURAL REGENERATION PEPTIDES AND USES THEREFOR” (CURONZ HOLDINGS COMPANY LIMITED, priority 2013, published 2016).
“Also recorded” adds a separate entry of the source. Blank lines part the entries; values can stand above or below the molecule they belong to. Square brackets hold non-standard residues; d marks the D form. Ends that are not written are not given here. βAla = NCCC(=O)O

Key:
[1] = biological target: T1, homodimeric CXCR4 receptor (Homo sapiens, UniProt P61073); assay: 125I-SDF-1 displacement binding study (CEREP); settings: recombinant homodimeric CXCR4 expressing HEK293 cells; unlabelled peptide in competition
T1 construct: host or cells: HEK293
Experimental: This was determined by radioactive ^125I-SDF-1 displacement studies using CXCR4 homodimeric receptors and unlabelled NNZ-4921 and NRP2945 in competition.

cerebellar granule cells = assay: Survival of cerebellar microexplants under glutamate and 3-NP toxicity; format: cell-based, Wistar rats; settings: for block of NNZ-4921 neuronal survival-promoting activity: glutamate and 3-NP toxicity, 48 hours, eotaxin-3 10 and 100 nM, AMD3100 300 nM, co-administered with NNZ-4921
Experimental: Glass coverslips were obtained from New Zealand BioLabs, size 18 mm×18 mm. The coverslips were placed in a 150 mm Petri dish, at 8 cover slips per dish. Both sides of the coverslips were soaked and washed in absolute ethanol. The ethanol was discarded, and autoclaved MilliQ® was added to rinse both sides of coverslips. The water was then discarded, and the coverslips were air dried under the laminar flow.
Poly-D-lysine (PDL) was obtained from Sigma (P7280, lyophilized powder, γ-irradiated, average mol wt 30,000-70,000, cell culture tested). This was diluted with autoclaved PBS to make a stock solution of 1 mg/ml. The stock solution was divided into aliquots of 500 μl/tube and stored at −20° C.
For experiments, the stock solution of PDL was diluted with PBS 1:10 to make working solution of with a final concentration of 100 μg/ml. Approximately 100 μl of the PDL working solution was added to the coverslips and this was incubated at 34° C. for 2 hours (minimum) to overnight.
Next, more than 10 ml autoclaved MilliQ® was added into each Petri dish and the PDL-coated coverslips were rinsed. The coverslips were then transferred to 6 well culture plates. After air drying, the plates were wrapped in foil and stored at 4° C. until use. Storage was possible for up to 2 weeks.
Rat pups were used for this experiment (Wistar rats), either P3/4 or P7/8.
For extraction of P3/4 cerebellar cortices, 0.5 ml of ice-cold PBS/0.65% D(+)-glucose buffer was placed into a Petri dish and the tissue was placed into this solution. For extraction of P7/8 cerebellar cortices, 1.0 ml of ice-cold PBS/0.65% D(+)-glucose buffer was placed into a Petri dish and the tissue was placed into this solution.
The laminated cerebellar cortex was removed surgically and stored immediately in ice-cold PBS/0.65% D(+)-glucose buffer using the amounts as noted above. The cortex was then transferred to a Petri dish, and the meninges were removed from the cerebellar. The tissue was sliced by scissors, and passed once (P3/P4 pups) or twice (P7/P8 pups) through a 23-gauge sized needle attached to a 1 cc syringe to obtain uniformly sized microexplants. This was set aside in a Petri dish.
Next, the tissue was transferred into a 15 ml Falcon tube and centrifuged for 2 minutes at 350 rpm, at 4° C. The PBS/Glu(+) buffer was carefully discarded using a pipette. The pellet was resuspended in cold Neurobasal® medium (Invitrogen), at 1 ml per pup. This was centrifuged for 2 minutes at 350 rpm (60XG), at 4° C.
The medium was discarded and the pellet was resuspended in warm Neurobasal® medium, at 0.5 ml per P3/4 pup and 1.5 ml per P7/8 pup. This was then seeded on PDL-coated cover slips in 6 well plates at a volume of 40-45 μl per coverslip.
The coverslips were incubated at 34° C., in 5% CO2, with 100% humidity for 45 minutes to 1.5 hours to allow adherence. Then, 1 ml of Neurobasal® medium was added per well and the microexplants were checked under a microscope for adherence.
The toxins 3-nitropropionic acid and glutamate were prepared at 100× concentrations. For 50 mM 3-nitropropionic acid (Sigma), the stock solution was titrated with NaOH to a pH value of 7-7.2. For 50 mM L-glutamate, this was dissolved under heat (hot water).
As a negative control, 10 μl of 3-nitropropionic acid and 10 μl of glutamate was administered (4 wells). As a positive control, 20 μl of PBS was administered to normoxic microexplants without any toxins (4 wells). […]

human W9-hESCs = format: cell-based; settings: 300 nM AMD3100, normoxic and OGD conditions
Experimental: Experiments with human embryonic stem cells (hESC) were carried out in accordance with the guidelines and regulations of the NHMRC and with the approval of the Austin Health Human Research Ethics Committee (Approval number H2008/03194), and University of Melbourne Human Research Ethics Committee (Approval number 0605017). H9 (WA-09, WiCell) cell lines were grown as previously described (Dottori & Pera, 2007).
Briefly, hESC were cultured on mitomycin-C treated mouse embryonic fibroblasts (MEFs) in hESC medium consisting of high-glucose Dulbecco's Modified Eagle Medium (DMEM) without sodium pyruvate, supplemented with 1% insulin/transferrin/selenium, 0.1 mM β-mercaptoethanol, 1% nonessential amino acids (NEAA), 2 mM glutamine, 25 U/ml penicillin, 25 μg/ml streptomycin (all from Invitrogen) and 20% fetal calf serum (FCS) (Hyclone).
Alternatively, hESC were cultured on mitomycin-C treated human foreskin fibroblasts (HFF; ATCC, CRL-2097) in KSR media consisting of DMEM/nutrient mixture F-12, supplemented with 0.1 mM […], 1% nonessential amino acids (NEAA), 2 mM glutamine, 25 U/ml penicillin, 25 μg/ml streptomycin and 20% knockout serum replacement (all from Invitrogen).
All cells were cultured at 37° C. in 5% CO2 with 100% humidity. Colonies were mechanically dissected every 7 days (subcultivated or passaged) and transferred to freshly prepared MEFs or HFFs. Media was changed every second day.
Neuronal differentiation was achieved using the noggin induction method described for mouse neurospheres as adapted by Dottori for human neurospheres (Dottori & Pera, 2007). The colonies were maintained at 37° C., with 5% CO2 in hESC medium supplemented with 500 ng/ml of Noggin for 14 days while replacing Noggin every other day.
At this point, the cells were washed with PBS and the colonies were again mechanically dissociated, but this time the central (differentiated) part of the colony was also cut into smaller pieces using a 26-gauge needle. The pieces were transferred to individual wells in a low adherent 96-well plate containing Neurobasal®A (NBM) (Invitrogen) supplemented with 1× X B-27® (Invitrogen) and 1× N-2 (Invitrogen) 20 ng/ml human recombinant EGF and 20 ng/ml human recombinant bFGF (Pharmacia). Media was changed every 2 to 3 days to allow neurosphere formation over 2 weeks.
In order to facilitate neuronal differentiation, neurospheres were again separated into smaller pieces under a dissection microscope, and three to four pieces were transferred to each well of a 96-well plate. Prior to this transfer, the plate was pre-coated with poly-D-lysine (10 μg/ml in PBS), washed in PBS, recoated with mouse laminin (5 μg/ml in PBS), and washed again. The cells were then grown for 11 days (with media changed every two days) in NBM lacking growth factors prior to induction of injury and assessment of hypothermia.
On the day of experiments, the medium was changed to NBM+N2 containing a B27 preparation lacking the usual antioxidants (Invitrogen; 10889-038) to eliminate their confounding effects (NBM-AO).
To maintain isoosmotic pressure conditions, 25 mM 2-deoxy-D-glucose was added to NBM-AO medium and equilibrated for 30 minutes at room temperature before the initial media change as described above. […] Culture supernatant was removed after this 4 hour period and stored at 4° C. until analysed for lactate dehydrogenase (LDH) activity.
The media was replaced with fresh NBM-AO and the cells were incubated for a further 20 hours containing drug, before again measuring LDH. Oxidative stress was induced by adding 50 μM fresh H2O2 (Sigma, H1009) to the growth factor negative NBM on initiation of the experiment with continued culture for 4 hours when LDH was measured and NBM-AO without H2O2 was returned to the culture which was maintained for a further 20 hours before again measuring LDH.

neuronal stem cells = settings: cited from earlier work
[2] = biological target: T2, homodimeric CXCR4 receptor (recombinant, expressed in HEK293 cells) (UniProt P61073 1-352, limits assumed); assay: 125I-SDF-1 displacement on HEK293 cells expressing recombinant homodimeric CXCR4 (CEREP)
T2 construct: whole, on cells; also called CXCR4 homodimeric receptors; homodimeric CXCR4 receptor complex
T2 sequence (P61073 whole entry): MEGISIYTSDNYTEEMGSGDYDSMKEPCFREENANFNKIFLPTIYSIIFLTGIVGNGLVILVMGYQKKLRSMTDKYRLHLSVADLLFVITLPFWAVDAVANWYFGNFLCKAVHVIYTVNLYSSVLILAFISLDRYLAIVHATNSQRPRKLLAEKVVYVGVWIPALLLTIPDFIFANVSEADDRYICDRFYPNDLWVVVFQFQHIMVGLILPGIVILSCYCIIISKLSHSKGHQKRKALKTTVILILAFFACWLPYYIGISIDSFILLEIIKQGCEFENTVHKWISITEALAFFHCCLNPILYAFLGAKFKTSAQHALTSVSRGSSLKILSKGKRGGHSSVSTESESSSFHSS

T1 sequence (P61073 whole entry): as above

Molecule: GRRAAPGRAGG [NNZ-4921]
displacement of 125I-SDF-1 from homodimeric CXCR4 receptor [1]: not able to displace the radioactive ligand SDF-1 | activity of NNZ-4921 in reducing cell death in presence of eotaxin-3 in combination with AMD3100 (cerebellar granule cells; 10 fM or 100 fM NNZ-4921): completely blocked

Molecule: c1cc(CN2CCCNCCNCCCNCC2)ccc1CN1CCCNCCNCCCNCC1 [AMD3100, reference compound]
toxicity on W9-hESCs (human W9-hESCs): did not show any toxicity | block of NNZ-4921 neuronal survival-promoting activity (cerebellar granule cells): completely block

Molecule: eotaxin-3: human recombinant eotaxin-3 (Pharmaco), ligand of the CCR3 receptor, partial agonist
block of NNZ-4921 neuronal survival-promoting activity (cerebellar granule cells): abrogation of the neuroprotective effect; also recorded: completely blocked | effect of eotaxin-3 alone on neuronal survival (cerebellar granule cells; without NNZ-4921, normoxic or oxidative/excitotoxic stress conditions): no toxic effect; also recorded: no effect on the overall neuronal survival rate

Molecule: SDF-1: natural ligand for the CXCR4 receptor
EC50 values for chemoattraction (neuronal stem cells; SDF-1): lower nanomolar range | minimal concentration required to chemoattract neuronal stem cells (neuronal stem cells; Xu and Heilshorn, 2012): 9 nM

Molecule: GRRAAPGR-β-Ala-GG (GRRAAPGR[βAla]GG) [NRP2983, synthetic 11-mer peptidomimetic closely related to NRP2945]
promotion of survival of cultivated cerebellar cells (cerebellar granule cells; 1fM NRP2983, oxidatively stressed cerebellar microexplants): 70%

binding result [2]: no binding
Molecule: GRRAAPGRAGG [NNZ-4921]
